Data as given in US11918618B2, “Composition for preventing or treating gastritis or peptic ulcer” (CHONG KUN DANG PHARMACEUTICAL CORP., priority 2017, dated 2024).

Key:
PGE2 = experiment: Improvement of PGE2 in serum (PGE2 ELISA Kit) of Indomethacin-treated rats; type: in vivo; conditions: rat serum, oral dose 100.0 mg/kg
Source text: Since the recovery mechanism of stomach mucous membrane blood stream and epithelial cells is maintained and the action of preserving cells of the stomach mucous membrane was shown, when PGE2 in serum is increased, the enhanced improvement of PGE2 affects treatment of gastritis or stomach ulcer. In order to confirm the effect of the Example 1 and Comparative examples 2, 5 to 6 according to the present invention for this improvement of PGE2, for the blood collected in Test example 2, serum was separated according to the protocol provided by the manufacturer of PGE2 ELISA Kit and then sampling treatment was carried out, and then it was analyzed, and the result was shown in the following Table 4.

stomach mucus = experiment: Effect of improving stomach mucosal amount (alcian blue binding) in Indomethacin-treated rats; type: in vivo; conditions: rat, oral dose 100.0 mg/kg, Indomethacin 80 mg/kg
Method: In order to confirm the effect of improving the mucosal amount of the Example 1 and Comparative examples 1 to 6, the test was carried out according to the following method. Test animals were randomly assigned to 10 animals of specific pathogen free (SPF) 7-week-old rat males per group so that the average body weight was maximally uniformly distributed throughout the adaptation period (7 days). All animals were fasted 48 hours before administration and then test substances and control drug were orally administered, and 30 minutes after administration, Indomethacin 80 mg/kg was orally administered. […] After mixing the extract solution with diethyl ether in the same amount and shaking, it was centrifuged at 3,500 rpm for 10 minutes and for the supernatant, the absorbance was measured at 605 nm. 0.1% w/v alcian blue 8 GX solution was diluted with 0.25 M sucrose solution and standard solution was prepared and thereby a standard curve was fabricated and the measured absorbance value was converted into the amount of alcian blue combined with the stomach mucus, and the result was shown in Table 3.

[1] = reported in the literature; cited from earlier work
stomach ulcer = experiment: Inhibition of Indomethacin-induced stomach ulcer in rats (stomach ulcer index); type: in vivo; conditions: rat, single oral dose 75.0 mg/kg, Indomethacin 80 mg/kg
Method: In order to confirm the inhibition rate of stomach ulcer of the Example 1 and Comparative examples 1 to 6, the test was carried out according to the following method. Test animals were randomly assigned to 10 animals of specific pathogen free (SPF) 7-week-old rat males per group so that the average body weight was maximally uniformly distributed throughout the adaptation period (7 days). […] All animals were fasted 48 hours before administration of test substances and control drug, and then each of test substances and control drug was orally administered, and Indomethacin previously prepared 30 minutes after administration was orally administered at a dose of 80 mg/kg. After anesthetizing with diethyl ether 5 hours after administration of Indomethacin, stomach was removed and the gastric mucosa was photographed with a digital camera. The area of the damaged site was analyzed using ImageJ software (NIH, Bethesda, Md.). The stomach ulcer index was measured according to the following Equation 1. Stomach ulcer index (%)=(damage area/total area)×100 [Equation 1] The stomach ulcer test by volume for the Example 1 was tested by the method as Experimental example 1, and was shown in Table 5.

SMILES: O=C(NC(Cc1cc(=O)[nH]c2ccccc12)C(=O)O)c1ccc(Cl)cc1 (stereo not shown) [Comparative example 5, Rebamipide]
- PGE2 (PGE2): 1.82 ± 0.14 ng/mL
- PGE2, % compared to the normal group (PGE2; normal group 100, induced group 0): 77.7%
- Mucosal amount (stomach mucus): 10.6 ± 3.7 µg/L
- Mucosal amount, % compared to the normal group (stomach mucus): 94.6%

SMILES: O=C/C=C/c1ccccc1 [cinnamic aldehyde]
- stability at the room temperature [1]: low

SMILES: CNC(=C[N+](=O)[O-])NCCSCc1ccc(CN(C)C)o1 [Comparative example 4, Ranitidine]
- Inhibition rate (%), compared to the induced group (stomach ulcer): 97.0%
- Stomach ulcer index (%) (stomach ulcer): 0.20 ± 0.29 %
